Data published in US20070253961A1, “Pharmaceutical Composition Comprising the Anti-4-1Bb Antibody for Treating or Preventing Rheumatoid Arthritis” (ULSAN INDUSTRIAL EDUCATION FOUNDATION, priority 2003, published 2007).

Test system: CIA
Assay: 1-MT (IDO inhibition) reversal of 4-1BB-mediated suppression of CIA
Assay type: in vivo, mice
Method: Each mouse was injected with 200[…] of purified anti-4-1BB (3H3, rat IgG1), anti-4-1BBL (TKS-1, rat IgG1), or control rat IgG i.p. on PI days 0, 2, 4, 6, and 8. We tested the dose response of the antibodies in vivo by measuring serum IFN-γ levels for anti-4-1BB and suppression of the recall response for anti-4-1BBL. […] To treat established CIA, the mice were injected on PI days 28, 30, 32, 34, and 36. To block IFN-γ mice were injected i.p. every 4 days with 500[…] of purified R4-6A2 on PI days 0, 4, 8, and 12. Rat IgG again served as a control.
To inhibit IDO activity, slow-release polymer pellets impregnated with 1-MT (10 mg/day release rate) or placebo pellets (Innovative Research of America, Sarasota, Fla.) were implanted under the dorsal skin 1 day before the immunization. […] Because of the large size of these pellets relative to the small size of the mice, additional experiments were conducted with the implantation of two smaller pellets (10 mg/day release rate) per mouse, each containing 120 mg 1-MT, for a dose of 20 mg/day for 12 days. On day 13, two more pellets were implanted, for a total dosage period of 24 days.

Structure (SMILES): Cn1cc(CC(N)C(=O)O)c2ccccc21 (racemic) [1-MT, 1-methyl D,L-tryptophan]
- reversal of suppressive effect of anti-4-1BB on CIA (5 mg/day 1-MT, with anti-4-1BB): incomplete
- suppressive effect of anti-4-1BB on CIA (20 mg/day dose of 1-MT, slow-release pellets, with anti-4-1BB): completely reversed
- time of appearance of CIA after 1-MT reversal (1-MT with anti-4-1BB, 'in these experiments'): at the same time as in the control mice
- day disease became evident (1-MT-treated mice with 3H3, control mice first showed signs on PI day 30): 48 PI day
